pIC50: −log10 of the molar value. Where two headings read alike, the source gives them in different places. Each block holds one compound with its values, some of them ahead of it.
How the values were obtained:
A375 cells = assay: Alamar Blue cytotoxicity on A375 cells; format: cell-based, human; settings: for pIC50: Homo sapiens, read-out: IC50 A375; for Selectivity Index SIb: SIb = IC50 HaCaT/IC50 A375
Procedure: (§1) To the growth media of all the cell lines, 1% penicillin/streptomycin and 10% FBS were added. The cell lines were cultured in standardized conditions (37 °C and 5% CO2) with the initiation of the experimental protocol once an 80–90% confluency was reached.
(§2) The spectrophotometric quantification (λemission = 590/35, λexcitation = 530/25) of resorufin by the metabolic-dependent conversion of the resazurin by the viable cells was achieved using the microplate reader Synergy 2 Multi-Mode. The cells were seeded in 100 µL of growth media in 96-well plates at the specified density (Ea.Hy296—5 × 10^3 cells/well, HaCaT—8 × 10^3 cells /well, and A375—7 × 10^3 cells /well) and were left overnight to attach. […] After 48 h of cultivation, the growth media was removed, and the AB assay was performed for the quantification of the viable cells post-exposure to the selected compounds. Three biological replicates were performed for each biological experiment with six technical replicates, using 0.2% DMSO as the negative control (NC) for data normalization (100% viability). The IC50 values were calculated based on the dose–cellular viability curve ratio obtained by fitting the experimental data with a 4-parameter logistic curve (SigmaPlot 11).

Ea.Hy926 cells [1] = assay: Alamar Blue cytotoxicity on Ea.Hy926 cells; settings: for pIC50: read-out: IC50 EA.hy926, 48 h exposure, Alamar Blue; for Selectivity Index SIa: SIa = IC50 HaCaT/IC50 EA.hy296
Procedure: as §1, §2

HaCaT cells = assay: Alamar Blue cytotoxicity on HaCaT cells; format: cell-based; settings: Homo sapiens, read-out: IC50 HaCaT
Procedure: as §1, §2

[2] = system: chick chorioallantoic egg membrane (CAM); assay: Chorioallantoic egg membrane (CAM) assay; format: in vivo; settings: 1 µM, 5 µM and 10 µM, 5-day protocol
Procedure: Eggs without deformities and weighing between 50 and 60 g were selected. The eggs were cleaned with 70% alcohol and incubated for 14 days in standard conditions (37.5 °C, humidity 65%). On the 4th day of incubation, approximately 10–12 mL of egg white (albumen) was extracted from the top of each egg using a medical syringe with a needle for the detachment of the egg membrane. On the 5th day, the eggs were checked for fertility using a light source, and a window large enough to reveal the vascular plexus was cut out with forceps. The window was then sealed with medical tape to maintain favorable conditions for embryonic development. Optimal ventilation conditions, temperature, and humidity were ensured throughout incubation to facilitate proper embryo growth. […] For this purpose, a transparent silicone ring was applied to the vascular plexus of the CAM using a tweezer. In this ring, 10 μL of each test sample was applied for 4 days. […] Pictures were taken daily (days 1–5 of exposure) to observe the effects of the samples on the angiogenic process, and the changes observed were noted. For microscopic analysis, a Zeiss SteREO Discovery.V8 stereomicroscope was used, coupled with a Zeiss Axiocam 105 digital camera, both connected to a computer. The images presented in this study were captured using the ZEN core 3.8 software. The scale bar from the images represents a measurement of 500 μm.

Ea.Hy926 cells [3] = assay: Wound healing (scratch) assay; format: cell-based, human; settings: 12 h
Procedure: Confluent Ea.Hy926 monolayers were formed by seeding the cells for 24 h in a 12-well plate incubated in a starvation medium. After the confluency was reached, the medium was removed and a scratch was performed using the sterile tip of a 100 µL pipette. Detached cells were removed by washing the cellular monolayers twice with DPBS, and then the cells were photographed individually (phase-contrast microscopy, 10x objective) to assess the wound area at the moment of exposure (T0). […] For each experiment, an image was captured 12 h post-exposure (T12), and the rate of Ea.Hy926 cell migration was quantitatively evaluated by the wound healing percentage (%) calculated by the formula (AT0 − AT12)/ AT0 × 100 [35]. The scratch areas at T0 (AT0) and T12 (AT12), respectively, were determined with the IKOSA Prisma Application Wound Healing (Scratch) assay (v2.2.0) and are expressed as square pixels (Px^2).

Human VEGFR-2 (KDR) = target: T1, Human VEGFR-2 (KDR) (Homo sapiens, UniProt P35968); assay: In vitro VEGFR2 kinase inhibition assay; format: biochemical; settings: for pIC50: isolated kinase domain, 45 min at 30 °C; for inhibition at 0.5 µM: read-out: VEGFR2 Kinase Inhibitory Activity % of Inhibition (500 nM)
T1 construct: purchased BPS Bioscience 40325
Procedure: The experimental assay was conducted according to the manufacturer’s instructions. […] The incubation time was set for 45 min at 30 °C. Inhibitory potential towards the kinase domain was quantified by luminescence detection, after the addition of the Kinase-Glo™ MAX reagent (Promega, Madison, WI, USA, catalog #v6071). After further incubation for an additional 15 min, the luminescence was recorded using a microplate reader Synergy 2 Multi-Mode.

[4] = A-375, 48 h exposure, Alamar Blue

T1 sequence (P35968 805-1356): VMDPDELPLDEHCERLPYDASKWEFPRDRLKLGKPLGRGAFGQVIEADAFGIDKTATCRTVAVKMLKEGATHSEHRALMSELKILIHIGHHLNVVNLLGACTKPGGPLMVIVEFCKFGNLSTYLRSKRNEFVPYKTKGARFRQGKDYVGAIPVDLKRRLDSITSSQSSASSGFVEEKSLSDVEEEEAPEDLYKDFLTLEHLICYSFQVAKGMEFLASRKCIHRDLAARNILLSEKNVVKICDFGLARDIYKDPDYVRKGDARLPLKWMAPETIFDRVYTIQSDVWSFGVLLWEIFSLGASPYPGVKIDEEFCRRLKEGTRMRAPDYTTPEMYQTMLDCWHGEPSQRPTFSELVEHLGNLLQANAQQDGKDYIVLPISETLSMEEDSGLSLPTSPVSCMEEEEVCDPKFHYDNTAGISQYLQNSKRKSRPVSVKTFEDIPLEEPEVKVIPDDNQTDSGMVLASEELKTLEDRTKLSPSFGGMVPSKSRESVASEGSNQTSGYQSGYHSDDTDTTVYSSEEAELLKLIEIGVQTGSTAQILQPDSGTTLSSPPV

Compound: CNC(=O)c1cc(Oc2ccc(NC(=O)Nc3ccc(Cl)c(C(F)(F)F)c3)cc2)ccn1 [Sorafenib, sorafenib, reference compound]
- pIC50 (A375 cells; A-375, 48 h): 5.28
- pIC50 (Ea.Hy926 cells [1]): 4.99
- pIC50 (HaCaT cells; 48 h): 4.89
- anti-angiogenic effect in CAM [2]: potent anti-angiogenic effect was observed across all three tested concentrations
- inhibition of the mobility of Ea.Hy296 cells (Ea.Hy926 cells [3]; 5 µM): almost total inhibition

Compound: C=CCNC(=S)NN=Cc1ccc(Oc2ncnc3cc(OC)c(OC)cc23)cc1 [TSC1, N-allyl-2-(4-((6,7-dimethoxyquinazolin-4-yl)oxy)benzylidene)hydrazine-1-carbothioamide]
- pIC50 (A375 cells; [4]): < 4.00
- Selectivity Index SIa (Ea.Hy926 cells [1]): 2.00
- pIC50 (HaCaT cells; 48 h exposure, Alamar Blue): ~4.00
- pIC50 (Human VEGFR-2 (KDR)): 6.41
- inhibition at 0.5 µM (Human VEGFR-2 (KDR)): 52.7%

- pIC50 (Human VEGFR-2 (KDR)): 6.47
- inhibition at 0.5 µM (Human VEGFR-2 (KDR)): 59.5%
Compound: COc1cc2ncnc(Oc3ccc(/C=N/NC(=S)Nc4cccc(C(F)(F)F)c4)cc3)c2cc1OC [TSC2, N-(3-(trifluoromethyl)-phenyl)-2-(4-((6,7-dimethoxyquinazolin-4-yl)oxy)benzylidene)-hyrazine-1-carbothioamide]
- pIC50 (A375 cells; [4]): < 4.00
- pIC50 (Ea.Hy926 cells [1]): < 4.00
- pIC50 (HaCaT cells; 48 h exposure, Alamar Blue): < 4.00

Compound: COc1cc2ncnc(Oc3ccc(C=NNC(=S)Nc4ccc(F)cc4)cc3)c2cc1OC [TSC3, N-(4-fluorophenyl)-2-(4-((6,7-dimethoxyquinazolin-4-yl)oxy)benzylidene)hydrazine-1-carbothioamide]
- pIC50 (A375 cells; [4]): < 4.00
- Selectivity Index SIa (Ea.Hy926 cells [1]): 1.08
- pIC50 (Ea.Hy926 cells [1]): 4.58
- pIC50 (HaCaT cells; 48 h exposure, Alamar Blue): 4.54
- pIC50 (Human VEGFR-2 (KDR)): 6.62
- inhibition at 0.5 µM (Human VEGFR-2 (KDR)): 62.1%

Compound: COc1cc2ncnc(Oc3ccc(C=NNC(=S)Nc4ccc(Cl)cc4)cc3)c2cc1OC [TSC4, N-(4-chlorophenyl)-2-(4-((6,7-dimethoxyquinazolin-4-yl)oxy)benzylidene)hydrazine-1-carbothioamide]
- pIC50 (A375 cells; [4]): 4.83
- Selectivity Index SIb (A375 cells): 1.08
- Selectivity Index SIa (Ea.Hy926 cells [1]): 1.10
- pIC50 (Ea.Hy926 cells [1]): 4.84
- pIC50 (HaCaT cells; 48 h exposure, Alamar Blue): 4.80
- inhibition at 0.5 µM (Human VEGFR-2 (KDR)): 40.5%

Compound: COc1cc2ncnc(Oc3ccc(C=NNC(=S)Nc4ccccc4)cc3)c2cc1OC [TSC5, N-phenyl-2-(4-((6,7-dimethoxyquinazolin-4-yl)oxy)benzylidene)hydrazine-1-carbothioamide]
- pIC50 (A375 cells; [4]): 4.76
- Selectivity Index SIb (A375 cells): 0.95
- cytotoxic potential relative to sorafenib (Ea.Hy926 cells [1]; Ea.Hy296 cells, 48 h): 1.35 fold
- Selectivity Index SIa (Ea.Hy926 cells [1]): 2.20
- pIC50 (Ea.Hy926 cells [1]): 5.13
- pIC50 (HaCaT cells; 48 h exposure, Alamar Blue): 4.78
- anti-angiogenic effect in CAM [2]: pronounced decrease in CAM vascularization
- pIC50 (Human VEGFR-2 (KDR)): 6.42
- inhibition at 0.5 µM (Human VEGFR-2 (KDR)): 71%
- motility inhibition potential (Ea.Hy926 cells [3]; 1.25-5 µM, versus 0.2% DMSO): 11.19–12.82%

Compound: COc1cc2ncnc(Oc3ccc(C=NNC(=S)Nc4ccc(Cl)c(C(F)(F)F)c4)cc3)c2cc1OC [TSC6, N-(4-chloro-3-(trifluoromethyl)phenyl)-2-(4-((6,7-dimethoxyquinazolin-4-yl)oxy)benzylidene)hydrazine-1-carbothioamide]
- pIC50 (A375 cells; [4]): 4.21
- Selectivity Index SIb (A375 cells): 0.38
- Selectivity Index SIa (Ea.Hy926 cells [1]): 1.40
- pIC50 (Ea.Hy926 cells [1]): 4.78
- pIC50 (HaCaT cells; 48 h exposure, Alamar Blue): 4.64
- inhibition at 0.5 µM (Human VEGFR-2 (KDR)): 0%

Compound: COc1cc2ncnc(Oc3ccc(C=NNC(=S)Nc4ccc(F)c(F)c4)cc3)c2cc1OC [TSC7, N-(3,4-difluorophenyl)-2-(4-((6,7-dimethoxyquinazolin-4-yl)oxy)benzylidene)hydrazine-1-carbothioamide]
- pIC50 (A375 cells; [4]): < 4.00
- Selectivity Index SIa (Ea.Hy926 cells [1]): 1.25
- pIC50 (Ea.Hy926 cells [1]): 4.36
- pIC50 (HaCaT cells; 48 h exposure, Alamar Blue): 4.27
- inhibition at 0.5 µM (Human VEGFR-2 (KDR)): 21.1%

- inhibition at 0.5 µM (Human VEGFR-2 (KDR)): 0%
Compound: COc1cccc(NC(=S)NN=Cc2ccc(Oc3ncnc4cc(OC)c(OC)cc34)cc2)c1 [TSC8, N-(3-methoxyphenyl)-2-(4-((6,7-dimethoxyquinazolin-4-yl)oxy)benzylidene)hydrazine-1-carbothioamide]
- pIC50 (A375 cells; [4]): < 4.00
- pIC50 (Ea.Hy926 cells [1]): < 4.00
- pIC50 (HaCaT cells; 48 h exposure, Alamar Blue): < 4.00

Compound: COc1cc2ncnc(Oc3ccc(C=NNC(=S)NC(C)C)cc3)c2cc1OC [TSC9, N-isopropyl-2-(4-((6,7-dimethoxyquinazolin-4-yl)oxy)benzylidene)hydrazine-1-carbothioamide]
- pIC50 (A375 cells; [4]): < 4.00
- Selectivity Index SIa (Ea.Hy926 cells [1]): 6.90
- pIC50 (Ea.Hy926 cells [1]): 4.90
- pIC50 (HaCaT cells; 48 h exposure, Alamar Blue): 4.06
- anti-angiogenic effect in CAM [2]: anti-angiogenic properties were also demonstrated across all three tested concentrations
- pIC50 (Human VEGFR-2 (KDR)): 6.42
- inhibition at 0.5 µM (Human VEGFR-2 (KDR)): 70.5%
- reduction in the wound closure area (Ea.Hy926 cells [3]; highest evaluated concentration (TSC9 12.5 µM, TSC10 7.5 µM)): 25.63%

Compound: COc1cc2ncnc(Oc3ccc(/C=N/NC(=S)Nc4cccc(Cl)c4Cl)cc3)c2cc1OC [TSC10, (E)-N-(2,3-dichlorophenyl)-2-(4-((6,7-dimethoxyquinazolin-4-yl)oxy)benzylidene)hydrazine-1-carbothioamide]
- pIC50 (A375 cells; [4]): 4.54
- Selectivity Index SIb (A375 cells): 1.83
- Selectivity Index SIa (Ea.Hy926 cells [1]): 4.09
- pIC50 (Ea.Hy926 cells [1]): 4.89
- pIC50 (HaCaT cells; 48 h exposure, Alamar Blue): 4.28
- anti-angiogenic effect in CAM [2]: potent anti-angiogenic properties were observed
- pIC50 (Human VEGFR-2 (KDR)): 6.92
- inhibition at 0.5 µM (Human VEGFR-2 (KDR)): 89.1%
